According to ChEMBL document CHEMBL3351528, “Targeting dopamine D3 and serotonin 5-HT1A and 5-HT2A receptors for developing effective antipsychotics: synthesis, biological characterization, and behavioral studies” (J Med Chem, 2014):

Key:
[1] = molecular target: T1, Adrenergic receptor alpha-1 (Homo sapiens, UniProt P35348+P25100+P35368); assay: Binding affinity to alpha1 adrenoreceptor (unknown origin)
T1 sequence (P35348 whole entry): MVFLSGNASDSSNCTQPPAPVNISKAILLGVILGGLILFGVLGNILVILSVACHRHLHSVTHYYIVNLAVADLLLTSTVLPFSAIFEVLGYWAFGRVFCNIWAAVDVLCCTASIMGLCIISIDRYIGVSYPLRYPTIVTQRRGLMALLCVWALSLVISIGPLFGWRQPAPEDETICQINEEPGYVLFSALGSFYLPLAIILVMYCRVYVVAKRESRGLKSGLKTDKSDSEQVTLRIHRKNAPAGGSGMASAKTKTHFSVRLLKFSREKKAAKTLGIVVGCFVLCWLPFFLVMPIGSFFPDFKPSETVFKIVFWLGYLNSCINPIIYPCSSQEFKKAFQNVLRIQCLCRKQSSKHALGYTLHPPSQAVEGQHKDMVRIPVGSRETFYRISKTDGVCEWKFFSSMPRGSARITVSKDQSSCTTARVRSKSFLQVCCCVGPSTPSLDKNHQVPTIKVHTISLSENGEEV
T1 sequence (P25100 whole entry): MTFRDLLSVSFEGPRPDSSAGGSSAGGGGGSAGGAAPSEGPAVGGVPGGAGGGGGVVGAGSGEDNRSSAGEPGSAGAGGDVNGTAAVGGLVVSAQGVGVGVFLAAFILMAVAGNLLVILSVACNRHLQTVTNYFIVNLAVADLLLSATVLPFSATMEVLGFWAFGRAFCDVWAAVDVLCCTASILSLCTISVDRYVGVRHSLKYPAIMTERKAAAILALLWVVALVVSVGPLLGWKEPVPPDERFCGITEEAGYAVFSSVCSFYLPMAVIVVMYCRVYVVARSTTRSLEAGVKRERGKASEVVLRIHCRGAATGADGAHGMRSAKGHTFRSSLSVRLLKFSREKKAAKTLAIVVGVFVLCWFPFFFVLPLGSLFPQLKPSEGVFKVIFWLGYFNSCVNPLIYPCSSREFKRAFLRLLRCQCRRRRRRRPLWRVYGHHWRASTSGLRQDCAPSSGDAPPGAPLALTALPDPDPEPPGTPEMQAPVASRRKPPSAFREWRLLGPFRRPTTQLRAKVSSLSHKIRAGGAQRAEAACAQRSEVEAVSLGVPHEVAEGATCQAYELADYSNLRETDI
T1 sequence (P35368 whole entry): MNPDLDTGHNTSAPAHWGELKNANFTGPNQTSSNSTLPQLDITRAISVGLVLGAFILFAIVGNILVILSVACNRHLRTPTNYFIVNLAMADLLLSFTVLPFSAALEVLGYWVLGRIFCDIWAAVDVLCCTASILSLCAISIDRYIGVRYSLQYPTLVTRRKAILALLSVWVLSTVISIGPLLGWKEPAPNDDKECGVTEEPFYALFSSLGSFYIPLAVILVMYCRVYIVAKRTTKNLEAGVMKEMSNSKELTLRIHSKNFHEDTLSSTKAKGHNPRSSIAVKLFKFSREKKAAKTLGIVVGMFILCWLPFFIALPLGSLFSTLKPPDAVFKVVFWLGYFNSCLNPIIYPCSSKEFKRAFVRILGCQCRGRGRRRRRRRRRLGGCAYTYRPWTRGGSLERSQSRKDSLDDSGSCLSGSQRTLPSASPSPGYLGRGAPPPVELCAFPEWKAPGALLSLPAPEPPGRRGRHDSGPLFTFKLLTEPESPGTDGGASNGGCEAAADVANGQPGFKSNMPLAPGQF

[2] = system: Mus musculus; assay: Toxicity in mouse assessed as induction of memory impairment by measuring […] to enter dark compartment at 60 mg/kg, po administered 30 mins before training measured 24 hrs after acquisition trail by passive avoidance test; format: organism-based; design: dose 60 mg/kg, route oral; conditions: in vivo

For `O=C(NCCCCN1CCN(c2ccccc2)CC1)c1ccc2ncccc2c1`, the Ki [1] was 50 nM and the Activity [2] was “Non-toxic”.
